Measurements published in PubChem BioAssay AID652212 (Johns Hopkins Ion Channel Center, 2013).
The source made the active and inactive calls.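 How the source made its calls: active means peak inhibition of the TASK1 potassium channel above a set limit at some dose, plus a fitted dose response; inactive means no inhibition at any dose, or no fitted curve.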

target: Potassium channel subfamily K member 3 (Homo sapiens) (UniProt O14649); assay: inhibition of human KCNK3 channel flux – CHO cells, FluxOR thallium flux, SAR follow-up (AID 652212); details: CHO-TASK1 cells, FluxOR thallium flux fluorescence
Sequence (O14649 whole entry, looked up): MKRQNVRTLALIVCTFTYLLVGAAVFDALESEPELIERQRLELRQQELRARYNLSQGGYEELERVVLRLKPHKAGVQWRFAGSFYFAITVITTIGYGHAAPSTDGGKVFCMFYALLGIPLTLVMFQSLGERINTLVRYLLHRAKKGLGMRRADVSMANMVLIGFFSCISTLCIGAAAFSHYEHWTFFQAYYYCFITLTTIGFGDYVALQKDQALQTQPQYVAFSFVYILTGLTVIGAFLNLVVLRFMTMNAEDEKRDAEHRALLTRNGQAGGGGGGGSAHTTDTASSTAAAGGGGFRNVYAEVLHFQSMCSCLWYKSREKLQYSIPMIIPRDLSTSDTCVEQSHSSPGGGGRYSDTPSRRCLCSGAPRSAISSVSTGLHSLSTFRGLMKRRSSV

| SMILES | IC50 [nM] |
| --- | --- |
| COc1ccccc1C(=O)Nc1cccc(NC(=O)c2ccccc2C(C)C)c1 | 7 |
| COc1ccc(C(=O)Nc2cccc(NC(=O)c3cccc(C)c3)c2)cc1 | 1330 |
| O=C(Nc1cccc(NC(=O)c2ccccc2C(F)(F)F)c1)c1ccccc1 | 130 |
| O=C(Nc1cccc(NC(=O)c2ccoc2)c1)c1ccccc1 | 799 |
| COc1cccc(C(=O)Nc2cccc(NC(=O)c3cccc(C)c3)c2)c1 | 31 |
| CCOc1ccccc1C(=O)Nc1cccc(NC(=O)c2ccccc2C(F)(F)F)c1 | 2 |
| CC(C)c1ccccc1C(=O)Nc1cccc(NC(=O)c2ccccc2OC(F)(F)F)c1 | 11 |
| Cc1cccc(C(=O)Nc2cccc(NC(=O)c3cccc(Cl)c3)c2)c1 | 3 |
| COc1ccccc1C(=O)Nc1cccc(NC(=O)c2ccccc2)c1 | 222 |
| CC(C)Oc1ccccc1C(=O)Nc1cccc(NC(=O)c2ccccc2OC(F)(F)F)c1 | 1 |
| O=C(Nc1cccc(NC(=O)c2ccsc2)c1)c1ccccc1 | 162 |
| O=C(Nc1cccc(NC(=O)c2cccc(Cl)c2)c1)c1ccccc1 | 52 |
| COc1ccccc1C(=O)Nc1cccc(NC(=O)c2ccccc2OC(F)(F)F)c1 | 4 |
| O=C(Nc1cccc(NC(=O)c2cccc(C(F)(F)F)c2)c1)c1ccccc1 | 157 |
| Cc1cccc(C(=O)Nc2cccc(NC(=O)c3ccccc3C)c2)c1 | 91 |
| Cc1ccccc1C(=O)Nc1cccc(NC(=O)c2ccccc2)c1 | 104 |
| O=C(Nc1cccc(NC(=O)c2ccncc2)c1)c1ccccc1 | 249 |
| O=C(Nc1cccc(NC(=O)C2CCCCC2)c1)c1ccccc1 | 79 |
| COc1ccccc1C(=O)Nc1cccc(NC(=O)c2ccccc2C)c1 | 73 |
| Cc1cccc(C(=O)Nc2cccc(NC(=O)c3ccccc3Cl)c2)c1 | 23 |
| O=C(Nc1cccc(NC(=O)c2cccnc2)c1)c1ccccc1 | 1290 |
| Cc1cccc(C(=O)Nc2cccc(NC(=O)c3cccc(C)c3)c2)c1 | 30 |
| Cc1cccc(C(=O)Nc2cccc(NC(=O)c3ccccc3C(C)C)c2)c1 | 328 |

The next lines start with the values.

| IC50 [nM] | SMILES |
| --- | --- |
| 259 | CN(C)c1ccc(C(=O)Nc2cccc(NC(=O)c3ccccc3)c2)cc1 |
| 145 | Cc1cccc(C(=O)Nc2cccc(NC(=O)c3ccc(N(C)C)cc3)c2)c1 |
| 143 | Cc1cccc(C(=O)Nc2cccc(NC(=O)c3ccco3)c2)c1 |
| 10 | COc1ccccc1C(=O)Nc1cccc(NC(=O)c2ccccc2OC)c1 |
| 29 | O=C(Nc1cccc(NC(=O)c2cccs2)c1)c1ccccc1 |
| 497 | O=C(Nc1cccc(NC(=O)c2ccccc2Cl)c1)c1ccccc1 |
| 2 | CCOc1ccccc1C(=O)Nc1cccc(NC(=O)c2ccccc2OC)c1 |
| 149 | Cc1cccc(C(=O)Nc2cccc(NC(=O)c3ccc(Cl)cc3)c2)c1 |
| 86 | O=C(Nc1cccc(NC(=O)c2ccccn2)c1)c1ccccc1 |
| 25 | Cc1cccc(C(=O)Nc2cccc(NC(=O)c3cccc(F)c3)c2)c1 |
| 327 | COc1cccc(C(=O)Nc2cccc(NC(=O)c3ccccc3)c2)c1 |
| 306 | O=C(Nc1cccc(NC(=O)c2ccc(F)cc2)c1)c1ccccc1 |
| 4 | COc1ccccc1C(=O)Nc1cccc(NC(=O)c2cccc(C)c2)c1 |

same assay, conditions: CHO-TASK1 cells, FluxOR thallium flux fluorescence; at 3 µM (top of the series)

| SMILES | normalized flux ratio, lower = inhibition |
| --- | --- |
| CC(C)(C)c1ccc(C(=O)Nc2cccc(NC(=O)c3ccccc3)c2)cc1 | inactive |
| O=C(Nc1cccc(NC(=O)c2ccc(C(F)(F)F)cc2)c1)c1ccccc1 | inactive |

Other lines, results leading:

| normalized flux ratio, lower = inhibition | SMILES |
| --- | --- |
| inactive | Cc1ccc(C(=O)Nc2cccc(NC(=O)c3ccccc3)c2)cc1 |
| inactive | O=C(Nc1cccc(NC(=O)c2ccc(Cl)cc2)c1)c1ccccc1 |
